# Laboratory results taken from patent publication EP0908457B1, “3-(1,2-benzisothiazol- and isoxazol-5-Y1)-2,4(1H,3H)-pyrimidinedione or thione and 3-(1,2-benzisothiazol- and isoxazol-5-y1)-4(3H)-pyrimidinone or thione herbicidal agents” (BASF AKTIENGESELLSCHAFT, priority 1997, dated 1999).
# Key:
# [1] = system: Echinochloa oryzoides (Ard.) Fritsch.; assay: Preemergence weed control under flooded paddy conditions, ECHORC (Watergrass (Calif.)); type: in vivo; settings: flooded paddy; for herbicidal effect rating, ECHORC: meaning of each grade not given here
# [2] = system: Cyperus iria; assay: Preemergence weed control under flooded paddy conditions, CYPIR (Rice Flatsedge); type: in vivo; settings: flooded paddy; for herbicidal effect rating, CYPIR: meaning of each grade not given here
# [3] = system: Cyperus serotinus, Rottb.; assay: Preemergence weed control under flooded paddy conditions, CYPSE (Flatsedge); type: in vivo; for herbicidal effect rating, CYPSE: meaning of each grade not given here
# [4] = system: Monochoria vaginalis, Presl.; assay: Preemergence weed control under flooded paddy conditions, MOOVA (Monochoria); type: in vivo; settings: flooded paddy; for herbicidal effect rating, MOOVA: meaning of each grade not given here
# [5] = system: Sagittaria pygmaea, L.; assay: Preemergence weed control under flooded paddy conditions, SAGPY (Arrowhead (Pygmaea)); type: in vivo; settings: flooded paddy; for herbicidal effect rating, SAGPY: meaning of each grade not given here
# [6] = system: Oryza sativa, (L.) Tebonnet; assay: Rice tolerance to post-transplant applications under flooded paddy conditions (Example 187), ORYSAT (Rice, Tebonnet); for herbicidal effect rating ORYSAT: meaning of each grade not given here
# [7] = Rate 0.0320 kg/ha, preemergence, rated three to four weeks after treatment
# [8] = Rate 0.0620 kg/ha, preemergence, rated three to four weeks after treatment
# [9] = Rate 0.1250 kg/ha, preemergence, rated three to four weeks after treatment
# [10] = Rate 0.2500 kg/ha, preemergence, rated three to four weeks after treatment
# [11] = Rate 0.0320 kg/ha, preemergence, rated 3-4 weeks after treatment
# [12] = Rate 0.0620 kg/ha, preemergence, rated 3-4 weeks after treatment
# [13] = Rate 0.1250 kg/ha, preemergence, rated 3-4 weeks after treatment
# [14] = Rate 0.2500 kg/ha, preemergence, rated 3-4 weeks after treatment
# [15] = 0.0320 kg/ha, preemergence, rated three to four weeks after treatment
# [16] = 0.0620 kg/ha, preemergence, rated three to four weeks after treatment
# [17] = 0.1250 kg/ha, preemergence, rated three to four weeks after treatment
# [18] = 0.2500 kg/ha, preemergence, rated three to four weeks after treatment
# [19] = 0.0320 kg/ha, rated three to four weeks after treatment
# [20] = 0.0620 kg/ha, rated three to four weeks after treatment
# [21] = 0.1250 kg/ha, rated three to four weeks after treatment
# [22] = 0.2500 kg/ha, rated three to four weeks after treatment
# [23] = 0.0313 kg/ha, preemergence weeds, rated three to four weeks after treatment
# [24] = 0.0625 kg/ha, preemergence weeds, rated three to four weeks after treatment
# [25] = 0.1250 kg/ha, preemergence weeds, rated three to four weeks after treatment
# [26] = 0.2500 kg/ha, preemergence weeds, rated three to four weeks after treatment
# [27] = 0.0313 kg/ha, rated three to four weeks after treatment
# [28] = 0.0625 kg/ha, rated three to four weeks after treatment
smiles,measurement,setting,value
"Cn1c(C(F)(F)F)cc(=O)n(-c2ccc3snc(C(C#N)=Cc4cc5ccccc5[nH]4)c3c2)c1=O [Example 601, 1,2-Benzisothiazole-3-acetonitrile, 5-[3,6-dihydro-3-methyl-2,6-dioxo-4-(trifluoromethyl)-1(2H)-pyrimidinyl]-alpha-(indol-2-ylmethylene)-]","herbicidal effect rating, ECHORC",[1]; [7],0.0
same,"herbicidal effect rating, ECHORC",[1]; [8],0.0
same,"herbicidal effect rating, ECHORC",[1]; [9],2.0
same,"herbicidal effect rating, ECHORC",[1]; [10],6.0
same,"herbicidal effect rating, CYPIR",[2]; [7],0.0
same,"herbicidal effect rating, CYPIR",[2]; [8],0.0
same,"herbicidal effect rating, CYPIR",[2]; [9],4.0
same,"herbicidal effect rating, CYPIR",[2]; [10],4.0
same,"herbicidal effect rating, CYPSE",[3]; [7],0.0
same,"herbicidal effect rating, CYPSE",[3]; [8],0.0
same,"herbicidal effect rating, CYPSE",[3]; [9],0.0
same,"herbicidal effect rating, CYPSE",[3]; [10],3.0
same,"herbicidal effect rating, MOOVA",[4]; [7],6.0
same,"herbicidal effect rating, MOOVA",[4]; [8],7.0
same,"herbicidal effect rating, MOOVA",[4]; [9],9.0
same,"herbicidal effect rating, MOOVA",[4]; [10],9.0
same,"herbicidal effect rating, SAGPY",[5]; [7],0.0
same,"herbicidal effect rating, SAGPY",[5]; [8],0.0
same,"herbicidal effect rating, SAGPY",[5]; [9],0.0
same,"herbicidal effect rating, SAGPY",[5]; [10],0.0
same,herbicidal effect rating ORYSAT,"[6]; Rate 0.0320 kg/ha, rated three to four weeks after treatment",4.0
same,herbicidal effect rating ORYSAT,"[6]; Rate 0.0620 kg/ha, rated three to four weeks after treatment",5.0
same,herbicidal effect rating ORYSAT,"[6]; Rate 0.1250 kg/ha, rated three to four weeks after treatment",6.0
same,herbicidal effect rating ORYSAT,"[6]; Rate 0.2500 kg/ha, rated three to four weeks after treatment",7.0
"Cc1nsc2ccc(-n3c(=O)cc(C(F)(F)F)n(CCF)c3=O)cc12 [Example 516, 2,4(1H,3H)-Pyrimidinedione, 1-(2-fluoroethyl)-3-(3-methyl-1,2-benzisothiazol-5-yl)-6-(trifluoromethyl)-]","herbicidal effect rating, ECHORC",[1]; [11],0.0
same,"herbicidal effect rating, ECHORC",[1]; [12],0.0
same,"herbicidal effect rating, ECHORC",[1]; [13],0.0
same,"herbicidal effect rating, ECHORC",[1]; [14],0.0
same,"herbicidal effect rating, CYPIR",[2]; [11],0.0
same,"herbicidal effect rating, CYPIR",[2]; [12],0.0
same,"herbicidal effect rating, CYPIR",[2]; [13],0.0
same,"herbicidal effect rating, CYPIR",[2]; [14],2.0
same,"herbicidal effect rating, CYPSE",[3]; [11],0.0
same,"herbicidal effect rating, CYPSE",[3]; [12],0.0
same,"herbicidal effect rating, CYPSE",[3]; [13],0.0
same,"herbicidal effect rating, CYPSE",[3]; [14],0.0
same,"herbicidal effect rating, MOOVA",[4]; [11],4.0
same,"herbicidal effect rating, MOOVA",[4]; [12],6.0
same,"herbicidal effect rating, MOOVA",[4]; [13],8.0
same,"herbicidal effect rating, MOOVA",[4]; [14],9.0
same,"herbicidal effect rating, SAGPY",[5]; [11],0.0
same,"herbicidal effect rating, SAGPY",[5]; [12],0.0
same,"herbicidal effect rating, SAGPY",[5]; [13],0.0
same,"herbicidal effect rating, SAGPY",[5]; [14],0.0
same,herbicidal effect rating ORYSAT,"[6]; Rate 0.0320 kg/ha, rated 3-4 weeks after treatment",0.0
same,herbicidal effect rating ORYSAT,"[6]; Rate 0.0620 kg/ha, rated 3-4 weeks after treatment",1.0
same,herbicidal effect rating ORYSAT,"[6]; Rate 0.1250 kg/ha, rated 3-4 weeks after treatment",2.0
same,herbicidal effect rating ORYSAT,"[6]; Rate 0.2500 kg/ha, rated 3-4 weeks after treatment",3.0
"Cn1c(C(F)(F)F)cc(=O)n(-c2ccc3snc(C(=O)NS(=O)(=O)Cc4cccc(Cl)c4)c3c2)c1=O [Example 486, 1,2-Benzisothiazole-3-carboxamide, N-[(m-chlorobenzyl)sulfonyl]-5-[3,6-dihydro-3-methyl-2,6-dioxo-4-(trifluoromethyl)-1(2H)-pyrimidinyl]-]",ECHORC herbicidal rating,[1]; [15],4.0
same,ECHORC herbicidal rating,[1]; [16],6.0
same,ECHORC herbicidal rating,[1]; [17],7.0
same,ECHORC herbicidal rating,[1]; [18],9.0
same,CYPIR herbicidal rating,[2]; [15],4.0
same,CYPIR herbicidal rating,[2]; [16],5.0
same,CYPIR herbicidal rating,[2]; [17],6.0
same,CYPIR herbicidal rating,[2]; [18],6.0
same,CYPSE herbicidal rating,[3]; [15],0.0
same,CYPSE herbicidal rating,[3]; [16],0.0
same,CYPSE herbicidal rating,[3]; [18],3.0
same,MOOVA herbicidal rating,[4]; [15],5.0
same,MOOVA herbicidal rating,[4]; [16],6.0
same,MOOVA herbicidal rating,[4]; [17],7.0
same,MOOVA herbicidal rating,[4]; [18],9.0
same,SAGPY herbicidal rating,[5]; [15],0.0
same,SAGPY herbicidal rating,[5]; [16],0.0
same,SAGPY herbicidal rating,[5]; [17],3.0
same,SAGPY herbicidal rating,[5]; [18],6.0
same,ORYSAT herbicidal rating (rice tolerance),[6]; [19],0.0
same,ORYSAT herbicidal rating (rice tolerance),[6]; [20],3.0
same,ORYSAT herbicidal rating (rice tolerance),[6]; [21],5.0
same,ORYSAT herbicidal rating (rice tolerance),[6]; [22],6.0
"Cn1c(C(F)(F)F)cc(=O)n(-c2ccc3snc(COC(=O)c4ccccc4)c3c2)c1=O [Example 143, 3-[3-(Hydroxymethyl)-1,2-benzisothiazol-5-yl]-1-methyl-6-(trifluoromethyl)-2,4(1H,3H)-pyrimidinedione, benzoate (ester)]","herbicidal effect rating, ECHORC",[1]; [23],0.0
same,"herbicidal effect rating, ECHORC",[1]; [24],0.0
same,"herbicidal effect rating, ECHORC",[1]; [25],2.0
same,"herbicidal effect rating, ECHORC",[1]; [26],6.0
same,"herbicidal effect rating, CYPIR",[2]; [23],0.0
same,"herbicidal effect rating, CYPIR",[2]; [24],0.0
same,"herbicidal effect rating, CYPIR",[2]; [25],0.0
same,"herbicidal effect rating, CYPIR",[2]; [26],0.0
same,"herbicidal effect rating, CYPSE",[3]; [23],0.0
same,"herbicidal effect rating, CYPSE",[3]; [24],0.0
same,"herbicidal effect rating, CYPSE",[3]; [25],0.0
same,"herbicidal effect rating, CYPSE",[3]; [26],0.0
same,"herbicidal effect rating, MOOVA",[4]; [23],9.0
same,"herbicidal effect rating, MOOVA",[4]; [24],9.0
same,"herbicidal effect rating, MOOVA",[4]; [25],9.0
same,"herbicidal effect rating, MOOVA",[4]; [26],9.0
same,"herbicidal effect rating, SAGPY",[5]; [23],0.0
same,"herbicidal effect rating, SAGPY",[5]; [24],0.0
same,"herbicidal effect rating, SAGPY",[5]; [25],0.0
same,"herbicidal effect rating, SAGPY",[5]; [26],0.0
same,"herbicidal effect rating, ORYSAT (rice tolerance)",[6]; [27],3.0
same,"herbicidal effect rating, ORYSAT (rice tolerance)",[6]; [28],3.0
same,"herbicidal effect rating, ORYSAT (rice tolerance)",[6]; [21],3.0
same,"herbicidal effect rating, ORYSAT (rice tolerance)",[6]; [22],4.0
"Cc1ccc(OC(C)(C)C(=O)OC(C)(C)C)c(-c2nsc3ccc(-n4c(=O)cc(C(F)(F)F)n(C)c4=O)cc23)c1 [Example 514, Propionic acid, 2-{{2-{5-[3,6-dihydro-3-methyl-2,6-dioxo-4-(trifluoromethyl)-1(2H)-pyrimidinyl]-1,2-benzisothiazol-3-yl}-p-tolyl}oxy}-2-methyl-, tert-butyl ester]",ECHORC herbicidal rating,[1]; [15],0.0
same,ECHORC herbicidal rating,[1]; [16],1.0
same,ECHORC herbicidal rating,[1]; [17],2.0
same,ECHORC herbicidal rating,[1]; [18],8.0
same,CYPIR herbicidal rating,[2]; [15],0.0
same,CYPIR herbicidal rating,[2]; [16],0.0
same,CYPIR herbicidal rating,[2]; [17],2.0
same,CYPIR herbicidal rating,[2]; [18],7.0
same,CYPSE herbicidal rating,[3]; [15],0.0
same,CYPSE herbicidal rating,[3]; [16],0.0
same,CYPSE herbicidal rating,[3]; [17],0.0
same,CYPSE herbicidal rating,[3]; [18],0.0
same,MOOVA herbicidal rating,[4]; [15],9.0
same,MOOVA herbicidal rating,[4]; [16],9.0
same,MOOVA herbicidal rating,[4]; [17],9.0
same,MOOVA herbicidal rating,[4]; [18],9.0
same,SAGPY herbicidal rating,[5]; [15],0.0
same,SAGPY herbicidal rating,[5]; [16],0.0
same,SAGPY herbicidal rating,[5]; [17],0.0
same,SAGPY herbicidal rating,[5]; [18],0.0
same,ORYSAT herbicidal rating (rice tolerance),[6]; [19],2.0
same,ORYSAT herbicidal rating (rice tolerance),[6]; [20],2.0
same,ORYSAT herbicidal rating (rice tolerance),[6]; [21],1.0
same,ORYSAT herbicidal rating (rice tolerance),[6]; [22],4.0
"C=CC(C)OCc1nsc2ccc(-n3c(=O)cc(C(F)(F)F)n(C)c3=O)cc12 (centres unmarked) [Example 206, 1-Methyl-3-{3-[(1-methylallyloxy)methyl]-1,2-benzisothiazol-5-yl]-6-(trifluoromethyl)-2,4(1H,3H)-pyrimidinedione]","herbicidal effect rating, ECHORC",[1]; [23],0.0
same,"herbicidal effect rating, ECHORC",[1]; [24],2.0
same,"herbicidal effect rating, ECHORC",[1]; [25],2.0
same,"herbicidal effect rating, ECHORC",[1]; [26],9.0
same,"herbicidal effect rating, CYPIR",[2]; [23],9.0
same,"herbicidal effect rating, CYPIR",[2]; [24],9.0
same,"herbicidal effect rating, CYPIR",[2]; [25],9.0
same,"herbicidal effect rating, CYPIR",[2]; [26],9.0
same,"herbicidal effect rating, CYPSE",[3]; [23],0.0
same,"herbicidal effect rating, CYPSE",[3]; [24],2.0
same,"herbicidal effect rating, CYPSE",[3]; [25],7.0
same,"herbicidal effect rating, CYPSE",[3]; [26],7.0
same,"herbicidal effect rating, MOOVA",[4]; [23],0.0
same,"herbicidal effect rating, MOOVA",[4]; [24],0.0
same,"herbicidal effect rating, MOOVA",[4]; [25],1.0
same,"herbicidal effect rating, MOOVA",[4]; [26],4.0
same,"herbicidal effect rating, SAGPY",[5]; [23],0.0
same,"herbicidal effect rating, SAGPY",[5]; [24],0.0
same,"herbicidal effect rating, SAGPY",[5]; [25],1.0
same,"herbicidal effect rating, SAGPY",[5]; [26],4.0
same,"herbicidal effect rating, ORYSAT (rice tolerance)",[6]; [27],5.0
same,"herbicidal effect rating, ORYSAT (rice tolerance)",[6]; [28],6.0
same,"herbicidal effect rating, ORYSAT (rice tolerance)",[6]; [21],7.0
same,"herbicidal effect rating, ORYSAT (rice tolerance)",[6]; [22],9.0
